Results from the CATMoS acute toxicity set (Mansouri et al. 2021).

Test: GHS categories as the set defines them, by LD50: 1 up to 5, 2 up to 50, 3 up to 300, 4 up to 2000, 5 above 2000 mg/kg
Conditions: rat; in vivo; po
Description: […]The data set underlying the modeling effort for this project was initially compiled by NICEATM and U.S. EPA’s CCTE. Briefly, LD50 data were collected from rat acute oral systemic toxicity tests, including limit tests, ranges/confidence intervals, and discrete LD50 values. The full data set included 21,200 LD50 entries for 15,688 substances. […] Data were reviewed to ensure that LD50 values with obvious errors in the extracted data such as unit conversion errors (e.g., comma and decimal separator misplacements) were either fixed or removed. After this review, 16,209 LD50 values remained. Many of the chemicals represented had multiple LD50 entries, requiring that a single representative value per Chemical Abstracts Service Registry Number (CASRN) identifier be defined to facilitate modeling efforts. Based on ATWG feedback and to define the representative LD50 as a protective value while accounting for the distribution across multiple LD50s, the median of the lowest quartile was computed using only discrete LD50 values (omitting limit test data and range and confidence interval data). A detailed summary of the data compilation is available online on the NICEATM webpage dedicated to the collaborative modeling project (NTP 2020).
[…][…] For categorical designations, limit test and range/confidence interval LD50 data were integrated wherever possible. As such, the number of chemicals with end point values/calls varies across the modeling end points (Table 3) based on whether chemicals had representative LD50 values and/or other data. If a chemical had both, the representative value was used to determine categorical calls rather than limit test data. Some data were useable only for certain end points and categories depending on the thresholds. For example, ranges that spanned multiple hazard categories were considered only for the binary (very toxic/nontoxic) end points and omitted from rendering a determination for hazard category assignment.
[…]The final data set comprising 11,992 chemicals was split into training and evaluation sets […], respectively. This process was performed semirandomly by ordering chemicals based on the five end points (categorical and continuous LD50 values) and partitioning every fourth record into the evaluation set accordingly. This approach was taken to ensure an equivalent distribution of the LD50 values and the different hazard categories between the training and the evaluation sets without supervised sampling of the chemicals based on structures (Figure 1A). The sources of the chemical structures were also kept equivalent between the two sets, with chemical structures obtained from DSSTox, being the highest quality, representing over 75% of each set (Figure 1B).

SMILES | GHS category
CCCCCCCC/C=C\CCCCCCCC(=O)N(C)CC(=O)O | 5
C[N+](C)(C)NCCC(=O)[O-] | 5
CCCCCCCCCC[C@H]1O[C@H]1CCCCC(C)C | 5
CCCCC(CC)COC(=O)CCCCCCCC(=O)OCC(CC)CCCC (configuration not stated) | 5
CC(=O)Nc1ccc(C(C[N+](=O)[O-])Sc2ccc(C)cc2)cc1 (configuration not stated) | 5
O=C1OC(CBr)CC12CC(CBr)OC2=O (configuration not stated) | 5
CCC(C)(NC(=O)c1cc(Cl)c(C)c(Cl)c1)C(=O)CCl (configuration not stated) | 5
Cc1ccc(C(=O)COc2c(C(=O)c3ccc(Cl)c(C)c3Cl)c(C)nn2C)cc1 | 5
CC(C)C1=CC23CCC4C(C)(C(=O)N(C)C)CCCC4(C)C2CC1C1C(=O)OC(=O)C13 (configuration not stated) | 5
COc1ccc(Cl)cc1N/C(=N/C1CCCCC1)c1cccc(C)c1 | 4
N#CCN(CC#N)CCN(CC#N)CC#N | 5
CCC=CCCCCCCCCCCCCCCOCC | 5
Cc1cccc2ncc(C(=O)NC3CCCCCC3)c(=O)n12 | 3
O=[N+]([O-])c1ccc2c(c1)COP(=S)(N1CCCCC1)O2 (configuration not stated) | 3
CCCC(=O)C(C)=O | 5
CC(C)=CCC[C@@](C)(O)[C@H]1CC=C(C)CC1 | 5
Cc1ccc(C(N)=O)c(O)c1 | 5
CC(C)(Oc1ccc(Cl)cc1)C(=O)OC(COC(=O)c1cccnc1)COC(=O)c1cccnc1 | 5
CN1C(=O)COc2cc(C(=O)C=Cc3ccc(O)cc3)ccc21 | 5
Clc1ccc(CN2CCN=C2c2ccccc2)cc1 | 4
COc1cc(NC(=O)C(/N=N/c2cc(OC)c(S(=O)(=O)Nc3ccccc3)cc2OC)C(C)=O)c(OC)cc1Cl (configuration not stated) | 5
CC/C=C\CCOC(=O)CC | 5
CC=COC | 5
Cc1cc(-n2nc3ccc(Cl)cc3n2)c(O)c(C(C)(C)C)c1 | 5
CC1N=C(c2ccccc2Cl)c2c(ccc(NC(=O)NCCO)c2Br)N(C)C1=O (configuration not stated) | 5
CCOP(Oc1c(C)cc(C(C)(C)C)cc1C(C)(C)C)Oc1c(C)cc(C(C)(C)C)cc1C(C)(C)C | 5

SMILES | GHS category
COc1ccc(CCN2CCC(Nc3nc4ccccc4n3Cc3ccc(F)cc3)CC2)cc1 | 5
CCCCCCC(C)O (configuration not stated) | 5
O=C1OC(CN2CCOCC2)CC12CC(CN1CCOCC1)OC2=O (configuration not stated) | 5
O=C1NC(=O)C(c2ccccc2)(c2ccc(O)cc2)N1 (configuration not stated) | 5
CO/N=C(/C1=NOCCO1)c1ccccc1Oc1ncnc(Oc2ccccc2Cl)c1F | 5
CCCCCNC(=O)c1ccccc1 | 5
CCOC(=O)c1nn(-c2ccc(OC)cc2)c2c1CCN(c1ccc([N+](=O)[O-])cc1)C2=O | 5
CN1C(C(=O)Nc2ccccn2)=C(O)c2sc(O)cc2S1(=O)=O | 3
CN1CC(c2ccnn2-c2ccccc2)CC2c3cccc4[nH]cc(c34)CC21 (configuration not stated) | 4
CN1C(=O)C(O)N=C(c2ccccc2Cl)c2cc(Cl)ccc21 (configuration not stated) | 5
CC1C2Cc3ccc(O)cc3C1(C)CCN2CCCC(=O)c1ccc(F)cc1 (configuration not stated) | 4
CCCN(CCC)C(=O)C(CCC(=O)OCCOC(=O)COC(=O)Cc1c(C)n(C(=O)c2ccc(Cl)cc2)c2ccc(OC)cc12)NC(=O)c1ccccc1 (configuration not stated) | 4
COc1ccc2c(c1)CCN(c1ccccc1)C2c1ccccc1F (configuration not stated) | 4
CC(C)(C)C1CCC(OC(=O)Cl)CC1 (configuration not stated) | 5
COP(=S)(OC)Oc1ccc(/N=N/c2ccc(Cl)cc2)cc1 | 4
CC(c1ccccc1)c1ccc(Nc2ccc(C(C)c3ccccc3)cc2)cc1 (configuration not stated) | 5
CN1CCN(CC(=O)N(C)c2ccc(N)cc2)CC1 | 5
C=CCCCC(C)C | 5
CSC(=O)c1c(C(F)F)nc(C(F)(F)F)c(C(=O)SC)c1CC(C)C | 5
CCCCCCCC(=O)Nc1ccc(Cc2ccccn2)c([N+](=O)[O-])c1 | 3
CCOCC=C(C)CCC=C(C)C | 5
Cc1cc2[nH]c(=O)[nH]c2cc1N=NC1C(=O)NC(=O)NC1=O | 5
O=c1c2cc(Oc3ccc(Cl)cc3)ccc2nnn1Cc1cccnc1 | 5
CC(=O)SC[C@@H](C)C(=O)N1CCC[C@H]1C(=O)N[C@@H](Cc1ccccc1)C(=O)O | 5
CCCCCC(=O)OCCCC | 5
FC(F)(F)c1nc(NC2CC2)c2ncn(CC3CC3)c2n1 | 3

SMILES | GHS category
NP(N)(=O)Nc1ccccc1[N+](=O)[O-] | 5
CCCCC(CC)COC(=O)C(C#N)=C(c1ccccc1)c1ccccc1 (configuration not stated) | 5
CC(=O)S[C@H]1CC(=O)C=C2C[C@@H](SC(C)=O)[C@@H]3[C@H](CC[C@@]4(C)[C@H]3CC[C@]4(C)O)[C@]21C | 5
CN(C)C1C(=O)C(=C(O)NCN2CCCC2C(=O)O)C(=O)C2(O)C(=O)C3=C(O)c4c(O)cccc4C(C)(O)C3CC12 (configuration not stated) | 5
CC(=O)OC1CCCCC1C (configuration not stated) | 5
Cc1cccc(Nc2ccncc2S(=O)(=O)NC(=O)NC(C)C)c1 | 5
NS(=O)(=O)c1ccc(N2CCCCS2(=O)=O)cc1 | 5
CCOC(=O)C1N=C(c2ccccc2F)c2cc(Cl)ccc2NC1=O (configuration not stated) | 5
CCOC(=O)CCSc1cc(NC(=O)C(=O)OCC)ncn1 | 4
CC(C)c1cc(C(C)C)c(N=C=O)c(C(C)C)c1N=C=O | 5
FC(F)(F)C(F)(F)C(Cl)Cl | 5
CSc1nc2cc(Cl)c(Oc3cccc(Cl)c3Cl)cc2[nH]1 | 5
FC(F)(Cl)C(Cl)(Cl)Cl | 5
CCOC(=O)[C@H](CCc1ccccc1)N[C@@H](C)C(=O)N1CC2(C[C@H]1C(=O)O)SCCS2 | 5
C=CC(C)C(=O)OCC (configuration not stated) | 5
CCOS(=O)(=O)c1cc(C(C)(C)C)cc2cc(C(C)(C)C)ccc12 | 5
CCCCCCCCCCCCCCCCCC | 5
c1ccc2c(c1)CCc1ccccc1N2 | 5
Nc1ccc(S(=O)(=O)O)cc1N | 5
COc1nn(-c2cccc(C(F)(F)F)c2)c2ncccc12 | 4
N[C@@H]1CONC1=O | 5
CCCCCC(CCC)COC(=O)c1ccccc1C(=O)OCC(CCC)CCCCC (configuration not stated) | 5
CC(C)=CCCC(C)CCOC(=O)Cc1ccccc1 (configuration not stated) | 5
CC(C)C1=CC23CCC4C(C)(C(=O)N5CCOCC5)CCCC4(C)C2CC1C1C(=O)OC(=O)C13 (configuration not stated) | 5
CCCCC(CC)CN1CN(CC(CC)CCCC)CC(C)(N)C1 (configuration not stated) | 4
COc1ccccc1C(=O)NS(=O)(=O)c1ccc(C(=O)NC2CC2)cc1 | 5

SMILES | GHS category
CN1C(=O)C(C)(C)Oc2cc(C(=O)C=Cc3ccc(Cl)cc3)ccc21 | 5
O=C(Cc1ccccc1)C1C(=O)CC(c2ccccc2)CC1=O (configuration not stated) | 5
CCCCCCC(O)CCO (configuration not stated) | 5
CCCCCCCCNC(C)C(O)c1ccc2c(c1)CCCS2 (configuration not stated) | 5
CC(C)=CCSC[C@H](N)C(=O)O | 5
CC(C)c1cc(C(C)C)cc(C(C)C)c1 | 5
Cc1cccc(C)c1N(CCCC(=O)O)C(=O)c1ccccc1Cl | 5
O=S(O)CO | 5
COc1nc(Nc2ccc(C=Cc3ccc(Nc4nc(OC)nc(N(CCO)CCO)n4)cc3S(=O)(=O)O)c(S(=O)(=O)O)c2)nc(N(CCO)CCO)n1 | 5
CCOC(=O)N(C)C1CCCN(c2nc(N)c3cc(OC)c(OC)cc3n2)C1 (configuration not stated) | 4
O=c1[nH]c(=O)n([C@H]2O[C@H](CO)[C@@H](O)[C@@H]2O)cc1/C=C\Br | 5
CC(C)C1OCCN1CCO (configuration not stated) | 4
COc1cc2nc(N3CCC(N(C)C(=O)c4ccco4)CC3)nc(N)c2cc1OC | 4
Nc1ccc(C(=O)NCCN2CCN(c3ccccn3)CC2)cc1 | 5
CCN(CC)C(=O)C(C)Oc1cccc2ccccc12 (configuration not stated) | 5
O=c1[nH]c(=O)n(C2OC(CO)C(O)C2O)cc1C=CBr (configuration not stated) | 5
CNC(=O)C(=NNc1ccc(Cl)cc1)C(C)=O | 5
CC(C)=C1CC[C@H](C)C2=C(C1)[C@@H](C)CC2 | 5
O=C(O)c1ccc(B(O)O)cc1 | 5
OC(c1ccc(F)cc1F)c1cccnc1Cl (configuration not stated) | 5
COC(=O)CCc1cc(-n2nc3ccccc3n2)c(O)c(C(C)(C)C)c1 | 5
COc1ccc(CC(C)NCC(O)c2ccc(O)c(CO)c2)cc1 (configuration not stated) | 4
CC(C)C[C@H]1C(=O)N2CCC[C@H]2[C@]2(O)O[C@](NC(=O)[C@@H]3C=C4c5cccc6[nH]c(Br)c(c56)C[C@H]4N(C)C3)(C(C)C)C(=O)N12 | 5
CC1CCC2(OC1)OC1CC3C4CC=C5CC(O)CCC5(C)C4CCC3(C)C1C2C (configuration not stated) | 5
